Data published in patent publication US7655253B2, “Navel orangeworm pheromone composition” (Bedoukian Research, Inc., priority 2004, dated 2010).

What was measured:
navel orangeworm = assay: Field trap tests, UC Davis, navel orangeworm captures; type: in vivo, Amyelois transitella; conditions: 0.5 mg lure, 3-wk period
Method: (§1) Experimental. Tests were conducted in almond and walnut plot fields in the UC Davis campus. Pheromone samples (0.5 mg) were formulated in rubber septa or in 12 mm diameter, 3 mm thick discs (made of ES fiber, Chisso Co. Ltd, Tokyo, Japan) and loaded into Pherocon 1C traps (Trece Inc., Salinas, Calif.). Three or five 1 to 3-day old virgin females were placed in fiberglass screen cages (Curtis, C. E. and Clark, J. D., J Econ Entomol 77:1057-1061 (1984) Curtis et al., J Econ Entomol 78:1425-1430 (1985)). Baited and control traps were placed at ca. 1.8 m height in randomized blocks with the intertrap distance of ca. 10 m. Capture data were transformed to log (x+0.5) and analyzed by ANOVA. […] Means of captures are untransformed, and error bars show one standard error (SE).

[1] = tested on: major pheromone-binding protein (AtraPBP); assay: Binding assays with recombinant olfactory proteins; design: species or system navel orangeworm, A. transitella; conditions: preliminary screening of ligands
Excerpt: Synthetic pheromone compositions can be conveniently tested in the assays described below. For example, the synthetic pheromone compositions of the present invention can be tested.to determine affinity for a pheromone-binding protein (AtraPBP) present in the navel orangeworm. Alternatively, the compositions can be tested for the ability to stimulate the olfactory receptor neurons (ORNs) in the insect's sensilla trichodea producing a response that indicates the presence or absence of a pheromone. In a typical embodiment, the compositions stimulate an electroantennogram response from an insect pest antenna, as described below.
Results. A comprehensive approach was taken in studying chemical communication in the navel orangeworm, A. transitella. Pheromone- and odorant-binding proteins were isolated, cloned, and expressed.

NOW males = assay: Wind tunnel bioassays of male NOW flight responses; type: in vivo, Amyelois transitella
Method: Flight responses of male NOW to different blends and doses of synthesized pheromone components were tested in the ARS wind tunnel. Males were 2-3 days old and were used during the last two hours of shotophase (dark cycle). The wind tunnel room was maintained at 23-26° C. with >35% relative humidity. NOW males were placed in individual aluminum-screen cages during their 1st or 2nd photophase and then held in an incubator until one hour prior to testing, when they were transferred from their dark incubator to the wind tunnel. […] After conditioning to ambient conditions in the wind tunnel for one hour, males were assayed individually to test compounds formulated on 1cm dia. filter paper disks. Information recorded included the number of males per trial that reached the pheromone source, the time to reach the pheromone source, and observations of the flight behavior (e.g., relatively straight flight; looping flight; veering out of the pheromone plume, etc.)
Subsequent wind tunnel tests were evaluated on quantitative as well as qualitative responses of NOW males to test formulations. All treatments were applied to 1 cm filter paper disks in at least 25 ul of hexane, to fully “wet” the paper surface, and at least 5 males were tested individually to each pheromone blend.

[2] = tested on: male moth antennae (navel orangeworm); assay: GC-EAD using male navel orangeworm antennae as sensing element; design: species or system Amyelois transitella; conditions: for EAD activity of natural constituent: peaks in female pheromone gland extract or its fractions; for EAD activity of synthetic or authentic compound: synthetic standard
Method: General. Gas chromatography-mass spectrometry (GC-MS), described in Examples 1-6, was obtained with a 5973 Network Mass Selective Detector linked to a 6890 Network GC System (Agilent Technologies, Palo Alto, Calif.) operated either in the electron impact (EI) or chemical ionization (CI) mode. Chromatographic resolution was done on an HP-5MS column (30 m×0.25 mm; 0.25 μm; Agilent) that was operated at 70° C. for 1 min, increased to 250° C. at a rate of 10° C./min and held at this temperature for 10 min. Vapor phase infrared spectroscopy was carried out on a Win GC/IR Pro (Varian Inc., formerly Digilab, Randolph, Mass.) with a GC/IR interface and a Scimitar FTS 2000 linked to a 6890 Network GC System (Agilent). Separation was done on a HP-5 column (30 m×0.32 mm; 0.25 μm; Agilent) operated at 100° C. for 1 min, increased to 250° C. at a rate of 20° C./min and held at this temperature for 5 min; the transfer line and light pipe were operated at 250° C. Gas chromatography with electroantennographic detection (GC-EAD) was done with two different systems: HP 5890 and HP 6890 (Agilent) both having Syntech's GC-EAD transfer lines and temperature control units (Hilversum, The Netherlands). In both systems, the effluent from the capillary column was split into EAD and flame ionization detector (FID) in 3:1 ratios. Male antennae were placed in EAG probes (Syntech) and held in place with Spectra 360 electrode gel (Parker Laboratories, Orange, N.J.). These probes were connected to AM-01 amplifiers (Syntech). The analog signals were fed into A/D 35900E interfaces (Agilent) and acquired simultaneously with FID signal on an Agilent Chemstation. Chromatographic separations were done either with HP-5MS column operated as in GC-MS or with HP-INNOWAX column (30 m×0.32 mm; 0.25 μm; Agilent) operated at 70° C. for 1 min, increased to 250° C. at a rate of 10° C./min and held at this temperature for 5 min.
Gas chromatography coupled with an electroantennographic detector (GC-EAD) using male moth antennae as the sensing element was used to determine the active constituents in these SSR-active fractions (3% and hexane). […] The peaks were numbered in the order of their retention times (tR) in a non-polar column (1: tR, 17.30 min; 2: 18.44 min; 3: 18.96 min; 4: 19.08 min; 5: 20.9 min; 6: 23.8 min). The retention times of these EAD-active peaks in a polar column (HP-INNOWAX) were: 16.59, 17.37, 18.32, and 18.72 min (3% fraction) and 18.52 and 20.22 min (hexane fraction).
Pheromone glands were individually dissected out of >2,000 virgin female NOW, and the glands were extracted in −250 microliters of pentane in composite batches of −250-300 glands per extract. The extracts were screened by GC-EAD analysis to locate the compounds which elicited responses from male antennae (i.e., potential pheromone compounds). The extracts were then concentrated to ˜10-20 microliters, and aliquots were analyzed on several GC columns with different polarity, by coupled GC-mass spectrometry, and by coupled GC-Fourier transform infrared spectrometry. A parallel set of studies was conducted with composite pheromone gland extracts prepared from Pyralis females. A subset of the extracts were also combined and fractionated by liquid chromatography, to provide samples for wind tunnel tests.

[3] = tested on: olfactory receptor neurons (ORN) in sensilla trichodea of male moth antennae; assay: Single sensillum recordings (SSR) from sensilla trichodea; design: species or system Amyelois transitella
Excerpt: Single sensillum recordings (SSR). Male moths were immobilized with dental wax on the recording stage of a single sensillum recording unit (Syntech, INR-02), the tip of the sensilla were cut (Kaissling, K. E. Single unit and electroantennogram recordings in insect olfactory organs, In: Spielman A. I., Brand J. G. (ed) Experimental Cell Biology of Taste and Olfaction: Current Techniques and Protocols, CRC Press, Boca Raton, pp.361-386 (1995)) and placed under a stereomicroscope (SZX12,Olympus, Tokyo, Japan). The indifferent (ground) electrode was a thin tungsten electrode inserted into the head. The recording glass electrode was slipped over the cut tip of the sensilla with a Piezo Manipulator (PM-10, World Precision Instruments, Sarasota, Fla.) while the signal was monitored with a Tektronix oscilloscope (TDS-2014). The pre-amplified signal was acquired with an acquisition system (IDAC-USB, Syntech) and SSR software (Autospike 2000, Syntech). The antennal preparation was continuously flushed with clean air at 0.5 m/s. Each stimulus was applied to a filter paper, dried at least 10 min, and placed within a glass cartridge (7 mm i.d.; 5 cm long). The cartridge opening was placed 1 cm in front of the antennae. The stimulus air was delivered by a stimulus controller (CD-02/E, Syntech).

meal moth = assay: Field trap tests, UC Davis, meal moth captures; type: in vivo, Pyralis farinalis; conditions: for catches of meal moth in traps baited with virgin female navel orangeworm plus added compound: synthetic sample 0.5 mg per device added
Method: as §1

[4] = tested on: antennae of male meal moth; assay: GC-EAD using male meal moth antennae; design: species or system Pyralis farinalis
Method: General. Gas chromatography-mass spectrometry (GC-MS), described in Examples 1-6, was obtained with a 5973 Network Mass Selective Detector linked to a 6890 Network GC System (Agilent Technologies, Palo Alto, Calif.) operated either in the electron impact (EI) or chemical ionization (CI) mode. Chromatographic resolution was done on an HP-5MS column (30 m×0.25 mm; 0.25 μm; Agilent) that was operated at 70° C. for 1 min, increased to 250° C. at a rate of 10° C./min and held at this temperature for 10 min. Vapor phase infrared spectroscopy was carried out on a Win GC/IR Pro (Varian Inc., formerly Digilab, Randolph, Mass.) with a GC/IR interface and a Scimitar FTS 2000 linked to a 6890 Network GC System (Agilent). Separation was done on a HP-5 column (30 m×0.32 mm; 0.25 μm; Agilent) operated at 100° C. for 1 min, increased to 250° C. at a rate of 20° C./min and held at this temperature for 5 min; the transfer line and light pipe were operated at 250° C. […]
Pheromone glands were individually dissected out of >2,000 virgin female NOW, and the glands were extracted in −250 microliters of pentane in composite batches of −250-300 glands per extract. […] The extracts were then concentrated to ˜10-20 microliters, and aliquots were analyzed on several GC columns with different polarity, by coupled GC-mass spectrometry, and by coupled GC-Fourier transform infrared spectrometry. […]

Q: For `CC/C=C\C=C/CCCCCCCCCC=O` (single isomer, unassigned) [Compound 1, (Z,Z)-11,13-hexadecadienal], which “captures of male navel orangeworm in baited traps” value (navel orangeworm) is on record?
A: captured no moths

Q: What about the “affinity to AtraPBP” value [1] of the same compound?
A: apparent high affinity

Q: What about the “male NOW response in wind tunnel” value (NOW males; synthesized standards and crude extract) of the same compound?
A: no test males responded

Q: And the “EAD activity of natural constituent” value [2]?
A: EAD-active

Q: What about the “EAD activity of natural constituent” value ([2]; listed as (Z,Z)-1) of the same compound?
A: strongest EAD-active peak

Q: What about the “SSR response of olfactory receptor neurons” value [3] of the same compound?
A: large spike amplitude cells (FIG. 1A) were activated

Q: How did the “EAD activity of natural constituent” value [2] turn out when `CCCCCCCCCCCCCCCC(=O)OCC` (single isomer, unassigned) [Compound 2, ethyl palmitate] was run?
A: EAD-active

Q: `CC/C=C\C=C/CCCCCCCCCC(=O)OCC` (single isomer, unassigned) [Compound 3, ethyl (Z,Z)-11,13-hexadecadienoate] was tested. Which “EAD activity of natural constituent” value [2] did it give?
A: EAD-active

Q: And the “EAD activity of synthetic or authentic compound” value [2]?
A: EAD active

Q: Which “catches of meal moth in traps baited with virgin female navel orangeworm plus added compound” value (meal moth) does the source give for `CC/C=C\C=C/CCCCCCCCCCOC(C)=O` (single isomer, unassigned) [Compound 4, (Z,Z)-11,13-hexadecadien-1-yl acetate] here?
A: completely shut off

Q: And the “EAD activity of natural constituent” value [2]?
A: EAD-active

Q: How did the “EAD activity of natural constituent” value [2] turn out when `CC/C=C\C/C=C\C/C=C\C/C=C\C/C=C\CCCCCCC` (single isomer, unassigned) [Compound 5, (Z,Z,Z,Z,Z)-3,6,9,12,15-tricosapentaene] was run?
A: EAD-active

Q: With `CC/C=C\C/C=C\C/C=C\C/C=C\C/C=C\CCCCCCCCC` (single isomer, unassigned) [Compound 6, (Z,Z,Z,Z,Z)-3,6,9,12,15-pentacosapentaene] as the compound, how does the “EAD activity of natural constituent” value [2] read?
A: EAD-active

Q: How did the “SSR response of olfactory receptor neurons” value [3] turn out when `CC/C=C/C=C/CCCCCCCCCC=O` [(E,E)-1] was run?
A: activated mainly a small spike ORN, with small activation of a large spike cell

Q: How did the “EAD activity of natural constituent” value [2] turn out when `CC/C=C\C=C\CCCCCCCCCC=O` [(E,Z)-1, E,Z-11,13-hexadecadienal] was run?
A: small EAD-active peaks

Q: For `CC/C=C/C=C\CCCCCCCCCC=O` [(Z,E)-1, Z,E-11,13-hexadecadienal], which “EAD activity of natural constituent” value [2] is on record?
A: small EAD-active peaks

Q: What does the source list for `CC/C=C\C=C/CCCCCCCCCCOC(C)=O` [(Z,Z)-11,13-hexadecadien-1-yl acetate]?
A: effect of removing the compound from the full mixture on meal moth captures (meal moth; partial mixtures): increased dramatically captures of male meal moth; catches of meal moth in traps baited with virgin female navel orangeworm plus added compound (meal moth): complete lack of captures; EAD activity of synthetic or authentic compound [2]: same electrophysiological activity as the natural product

Q: Which “EAD response of male meal moth antennae” value [4] does the source give for `CC/C=C\C/C=C\C/C=C\C/C=C\C/C=C\CCCCCCC` [(Z,Z,Z,Z,Z)-3,6,9,12,15-tricosapentaene] here?
A: consistently elicited responses from the male antennae

Q: And the “share of NOW antennal preparations with detectable response” value ([2]; NOW gland extract screened by GC-EAD)?
A: about half

Q: And the “EAD activity of natural constituent” value [2]?
A: much weaker response

Q: `CC/C=C\C=C/CCCCCCCCCCO` [Z11,Z13-16:OH, Z,Z-11,13-hexadecadien-1-ol] was tested. Which “effect of adding the compound to the blend of Z11,Z13-16:Ald with tricosapentaene” value (NOW males; wind tunnel) did it give?
A: further enhanced attraction

Q: How did the “EAD activity of synthetic or authentic compound” value [2] turn out when `CCCCCCCCCCCCCCCC(=O)OCC` [ethyl palmitate] was run?
A: EAD activity
